Data as given in patent publication US10072249B2, “Method of inducing kidney from pluripotent stem cells” (NATIONAL UNIVERSITY CORPORATION KUMAMOTO UNIVERSITY, priority 2013, dated 2018).

Key:
[1] = tested on: Osr1-GFP+ cells from the caudal part of E9.5 embryos; assay: Culture of sorted E9.5 posterior Osr1-GFP+ cell aggregates, then colony-formation assay on Wnt4 feeder cells; assay type: cell-based, mouse
Method: In vitro colony-formation assays were performed as described previously (Osafune et al., 2006). Briefly, progenitor cells were sorted by a FACS Aria II (Becton Dickinson) and plated onto NIH3T3 cells stably expressing Wnt4 at a low density (1,250-10,000 cells/well of 6-well plates). The cells were then cultured in DMEM/F12 containing 5% knockout serum replacement (Invitrogen), 10 μg/ml insulin, 6.7 μg/1 sodium selenite, 5.5 μg/ml transferrin, 1×10^−7 mol/l dexamethasone, 10 mmol/l nicotinamide, 2 mmol/l L-glutamine, 50 μmol/l 2-mercaptoethanol, 5 mmol/l HEPES and penicillin/streptomycin.
For embryonic tissue cultures at E8.5, the presomitic regions of 6-10 somite-stage embryos were harvested and T-GFP+ cells were sorted by FACS. The sorted cells were aggregated at 7,000 cells per aggregate in 96-well low-cell-binding plates and cultured in serum-free chemically-defined medium. In the embryonic tissue cultures at E9.5, the posterior regions from the 23rd somite region of 22-26 somite-stage embryos were harvested and Osr1-GFP+ or Wt1-GFP+ cells were sorted by FACS. The sorted cells were aggregated at 10,000 cells per aggregate in 96-well low-cell-binding plates and cultured in serum-free chemically-defined medium.
Induced cell aggregates from embryonic tissues or ES cells were dissociated by incubation with 0.25% trypsin for 5 min. After blocking in normal mouse serum (Thermo Scientific), cell surface marker staining was carried out in buffer comprising 1% bovine serum albumin, 1×HBSS and 0.035% NaHCO3. Data were analyzed with FlowJo software (Treestar).
RNA was isolated using an RNeasy Plus Micro Kit (Qiagen), and then reverse-transcribed with random primers and Superscript III (Invitrogen). Quantitative PCR was carried out using a Real-Time PCR System (Applied Biosystems) and Thunderbird SYBR qPCR Mix (Toyobo). All samples were normalized by the β-actin expression using the relative standard curve method.
To test the hypothesis, Osr1-GFP+ cells from the caudal part of E9.5 embryos were sorted, and were plated into low-cell-binding plates in the presence of the Rho kinase inhibitor Y27632, which supports cell survival. The cells spontaneously re-aggregated and formed spheres within 24 h.

Osr1-GFP ES cell line = assay: Induction of metanephric nephron progenitors from mouse ES cells; assay type: cell-based; conditions: low concentration, 24 h after 2 days of EB formation
Method: Mouse ES cells (Osr1-GFP) were maintained on murine embryonic fibroblasts in DMEM (Invitrogen) supplemented with 15% fetal calf serum, 0.1 mM 2-mercaptoethanol (Nacalai Tesque) and 1,000 U/ml leukemia inhibitory factor (ESGRO). EB3-DsRed cells, gifts from Dr. Hitoshi Niwa (CDB RIKEN), were maintained as reported previously (Usui et al., Am. J. Pathol. 180, 2417-2426, 2012). Before the initiation of differentiation, the ES cells were passaged once onto feeder cell-free gelatin-coated dishes in DMEM (Invitrogen) supplemented with 15% fetal bovine serum, 0.1 mM 2-mercaptoethanol, 1,000 U/ml leukemia inhibitory factor, 3 μM CHIR99021 (Wako) and 1 μM PD0325901 (Wako). ES cell differentiation was carried out in serum-free medium as follows. […]
RNA was isolated using an RNeasy Plus Micro Kit (Qiagen), and then reverse-transcribed with random primers and Superscript III (Invitrogen). Quantitative PCR was carried out using a Real-Time PCR System (Applied Biosystems) and Thunderbird SYBR qPCR Mix (Toyobo). […]

[2] = exogenous addition to aggregate culture

Q: With `Cc1c[nH]c(-c2cnc(NCCNc3ccc(C#N)cn3)nc2-c2ccc(Cl)cc2Cl)n1` [CHIR99021, 6-[[2-[[4-(2,4-dichlorophenyl)-5-(4-methyl-1H-imidazol-2-yl)-2-pyrimidinyl]amino]ethyl]amino]nicotinonitrile] as the molecule, how does the “induction of colony-forming progenitors and nephric gene expressions” value ([1]; high concentrations, 3 or 10 μM) read?
A: inhibitory

Q: And the colony formation ([1]; low concentration, 1 μM)?
A: slightly improved

Q: For `C[C@@H](N)[C@H]1CC[C@H](C(=O)Nc2ccncc2)CC1` [Y27632], which “expressions of Pax2, Six2 and Gdnf compared with the starting point” value ([1]; 48 h of culture of aggregates in low-cell-binding plates) is on record?
A: more than 10 fold

Q: And the “Osr1+/Itga8+/Pdgfra− population (FACS)” value ([1]; cultured aggregates)?
A: 10.0±0.01 % of the total cells

B1: Bmp4: human Bmp4 growth factor (R&D Systems) (protein, UniProt P12644 293-408, looked up)
Bone morphogenetic protein 4: SPKHHSQRARKKNKNCRRHSLYVDFSDVGWNDWIVAPPGYQAFYCHGDCPFPLADHLNSTNHAIVQTLVNSVNSSIPKACCVPTELSAISMLYLDEYDKVVLKNYQEMVVEGCGCR
Q: How did the “induction of colony-forming progenitors and nephric gene expressions” value [1, 2] turn out when B1 was run?
A: inhibitory

B2: activin: human activin A growth factor (R&D Systems) (protein, UniProt P08476 311-426, looked up)
Inhibin beta A chain: GLECDGKVNICCKKQFFVSFKDIGWNDWIIAPSGYHANYCEGECPSHIAGTSGSSLSFHSTVINHYRMRGHSPFANLKSCCVPTKLRPMSMLYYDDGQNIIKKDIQNMIVEECGCS
modifications: Inhibin beta A chain
Q: What does the source list for B2?
A: induction of colony-forming progenitors and nephric gene expressions [1, 2]: inhibitory; expression of the epiblast marker Fgf5 (Osr1-GFP ES cell line): induced transient expression
